Tests used:
[1] = test system: CB1 W5.43(280)A; conditions: cited from earlier work
[2] = test system: CB1 W5.43(280)A; conditions: cited from earlier work; remark: listed apart in the source
[3] = biological target: CB2 W194A mutant receptor in HEK293 cells (Homo sapiens, UniProt P34972, W194A); type: cell-based
[4] = biological target: CB2 WT receptor in HEK293 cells (Homo sapiens, UniProt P34972); type: cell-based
[5] = biological target: CB2 W194F mutant receptor in HEK293 cells (Homo sapiens, UniProt P34972, W194F); type: cell-based
CB2 W194F mutant receptor in HEK293 cells, sequence (P34972 whole entry W194F): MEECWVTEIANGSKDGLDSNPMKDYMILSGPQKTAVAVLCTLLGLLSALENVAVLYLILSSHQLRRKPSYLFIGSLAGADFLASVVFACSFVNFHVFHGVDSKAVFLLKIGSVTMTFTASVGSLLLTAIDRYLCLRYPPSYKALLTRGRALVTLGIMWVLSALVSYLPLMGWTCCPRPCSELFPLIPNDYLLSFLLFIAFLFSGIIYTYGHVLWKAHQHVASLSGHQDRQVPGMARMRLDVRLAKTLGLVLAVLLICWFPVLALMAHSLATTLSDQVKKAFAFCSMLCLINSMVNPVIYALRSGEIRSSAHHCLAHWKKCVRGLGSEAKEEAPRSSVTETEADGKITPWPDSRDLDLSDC

[6] = biological target: CB2 W194Y mutant receptor in HEK293 cells (Homo sapiens, UniProt P34972, W194Y); type: cell-based
CB2 W194Y mutant receptor in HEK293 cells, sequence (P34972 whole entry W194Y): as the sequence (P34972 whole entry W194F) above, with F194Y counted along it

[7] = biological target: CB2 receptor mutant W5.43(194)Y (Homo sapiens, UniProt P34972, W194Y); type: binding; conditions: W5.43(194)Y vs CB2 WT
CB2 receptor mutant W5.43(194)Y, sequence (P34972 whole entry W194Y): as the sequence (P34972 whole entry W194F) above, with F194Y counted along it

CB2 W194A mutant receptor in HEK293 cells, sequence (P34972 whole entry W194A): as the sequence (P34972 whole entry W194F) above, with F194A counted along it
CB2 WT receptor in HEK293 cells, sequence (P34972 whole entry): as the sequence (P34972 whole entry W194F) above, with F194W counted along it

Cc1c(C(=O)c2cccc3ccccc23)c2cccc3c2n1[C@H](CN1CCOCC1)CO3 [WIN55212-2]
Reduction of WIN55212-2 stimulated GTPγS binding by CB1 W5.43(280)A mutation [1]: 245 fold
Reduction of binding by CB1 W5.43(280)A mutation [2]: 16.8 fold

C=C[C@@]1(C)CC(=O)[C@]2(O)[C@@]3(C)[C@@H](O)CCC(C)(C)[C@@H]3[C@H](O)[C@H](OC(C)=O)[C@@]2(C)O1 [Forskolin, forskolin]
EC50 [3]: 2420 nM
EC50 [4]: 1320 nM
EC50 [5]: 1810 nM
EC50 [6]: 2020 nM

SR144528
Reduction of binding affinity by W5.43(194)Y mutation compared with wild-type [7]: 5 fold

CCCCCCC(C)(C)c1ccc([C@@H]2C[C@H](O)CC[C@H]2CCCO)c(O)c1 [CP55940]
Reduction of binding affinity by W5.43(194)Y mutation compared with wild-type [7]: no effect
